Publication PMC9783648, “Comparative Analysis of Aristolochic Acids in Aristolochia Medicinal Herbs and Evaluation of Their Toxicities” (Toxins, 2022)
Read-outs that look alike come from different tables or passages of the source.

How the values were obtained:
[1] = Cytotoxicity assay, MTT method; format: cell-based, Human; settings: human, HepG2, MTT, 72 h incubation, n = 3
Experimental: (§1) The cytotoxicity of the compounds to HepG2 was determined using the MTT method. First, the cells were transferred from the culture dish to a centrifuge tube, and centrifuged for 5 min (at 1000 r/min). After discarding the supernatant, the tumor cells were cultured in a complete medium containing 15% fetal bovine serum at 37 C, 5% CO2, and saturated humidity. When the cells grew logarithmically, they were spread onto plates, and the cell density was adjusted to 8.0 × 10^4 cells/mL before the cell sap was added into a 96-well plate (200 µL per well). The cells grew adherent for 24 h. After 24 h, 2 µL of two standards, two extracts of medicinal herbs were added to each plate well and incubated for 72 h. Adriamycin was used as the positive control, and the blank control contained 2 µL DMSO. After incubation, 20 μL of 5 mg/mL MTT solution was added, and the plates were incubated for 4 h. The supernatant liquid was removed, and the cells were disrupted with 200 µL of DMSO for 10 min. After the blue crystalline substance was fully dissolved, the absorbance value was measured on a microplate reader with the detection wavelength of 562 nm and the reference wavelength of 630 nm. The IC50 value of each compound was calculated.

[2] = system: HepG2 cell line; assay: Cytotoxicity assay, MTT method; format: cell-based, Human
Experimental: as §1

[3] = system: DNA of HepG2 cells; assay: Comet assay, DNA damage; format: cell-based, Human; settings: for damage to the DNA of HepG2 cells / tail length compared with blank control group: AAI 50 μM, AAII 131.5 μM; for tail length compared with blank control group: AMH 10 mg/mL, ADS 93 mg/mL, ADM 3.4 μM, Kruskal–Wallis test
Experimental: Cells in the logarithmic growth phase were inoculated in 6-well plates, and the cell density was adjusted to 2.5 × 10^5 cells /mL, 2 mL per well. After 24 h, the experimental group was combined with AAⅠ (50 μM), AAII (131.5 μM), extracts of the AMH (10 mg/mL) and ADS (93 mg/mL), the positive control group was combined with ADM (3.4 μM), and the blank control group were added with the same volume of cell culture solution. After 48 h of culture, the cells were collected. DNA damage was detected according to the operating instructions of comet assay kit. The experiment was repeated 3 times, and 50 cells were selected at each dose in each experiment and analyzed by Comet Assay software (CASP, http://casplab.com/, accessed on 5 October 2022). The mean values of tail DNA percentage, tail length, and tail moment of three experiments were used to express DNA damage. Results one-way ANOVA was used to test the data between groups, and the difference was statistically significant when p < 0.01. Data and statistical results are generated by GraphPad Prism 7 software.

[4] = system: DNA of HepG2 cells; assay: Comet assay, DNA damage; format: cell-based, Human; settings: HepG2, 48 h; AAI 50 μM, AAII 131.5 μM, AMH 10 mg/mL, ADS 93 mg/mL, ADM 3.4 μM; Kruskal–Wallis test
[5] = system: NCI-H187 cell line; design: method as in PMID 25865074, PMID 29098873; settings: cited from earlier work
[6] = system: A549; design: method as in PMID 25865074, PMID 29098873; settings: cited from earlier work
[7] = system: MCF7; design: method as in PMID 25865074, PMID 29098873; settings: cited from earlier work
[8] = means ± SD, read-out: IC50 values of compounds, cytotoxic activity
[9] = HepG2, AAI 50 μM vs AAII 131.5 μM, 48 h
[10] = HepG2, AAI 50 μM vs ADS extract 93 mg/mL, 48 h

Compound: O=C(O)c1cc2c(c3c1c([N+](=O)[O-])cc1ccc(O)cc13)OCO2 [AAC, aristolochic acid ΙΙΙ a]
- IC50 [1, 8]: 293.5 ± 0.3 µM

Compound: COc1cc(O)cc2c1cc([N+](=O)[O-])c1c(C(=O)O)cc3c(c12)OCO3 [AAD, Aristolochic acid IVa]
- IC50 ([1]; read-out: IC50 values of compounds, cytotoxic activity (symbol)): > 1000 µM
- cytotoxicity against HepG2 cell line [2]: no cytotoxicity

Compound: COc1cccc2c1cc([N+](=O)[O-])c1c(C(=O)O)cc3c(c12)OCO3 [AAI, Aristolochic acid I]
- IC50 at 72 h [1, 8]: 50.2 ± 0.2 µM
- cytotoxicity against HepG2 cell line [2]: moderate cytotoxicity
- damage to the DNA of HepG2 cells ([3]; HepG2, 48 h): obviously caused damage to the DNA
- tail length compared with blank control group ([3]; HepG2, 48 h): significantly higher
- tail DNA content, increase relative to AAII [3, 9]: 16 times
- tail length, increase relative to AAII [3, 9]: 12.8 times
- tail moment, increase relative to AAII group [3, 9]: 110 times
- tail DNA content, increase relative to ADS [3, 10]: 4.7 times
- tail length, increase relative to ADS [3, 10]: 6.8 times
- tail moment, increase relative to ADS group [3, 10]: approximately 70 times
- damage to cellular DNA, TDNA ([3]; HepG2, at 50 μM, 48 h): 40–95%
- tail DNA content compared with blank control group [4]: significant differences

Compound: O=C(O)c1cc2c(c3c1c([N+](=O)[O-])cc1ccccc13)OCO2 [AAII]
- IC50 [1, 8]: 131.4 ± 0.1 µM
- damage to cellular DNA, TDNA ([3]; HepG2, 48 h): 5–20%
- damage to the DNA of HepG2 cells ([3]; HepG2, 48 h): no obvious damage
- tail DNA content compared with blank control group [4]: no significance

Compound: COc1cc2c3c(cc4ccccc4c3c1OC)NC2=O [AL-BII]
- IC50 [1, 8]: 0.2 ± 0.1 µM
- cytotoxicity against HepG2 cell line [2]: most potent cytotoxicity
- cytotoxicity against NCI-H187 cell line [5]: selective cytotoxicity
- cytotoxicity against A549 [6]: no cytotoxicity
- cytotoxicity against MCF7 [7]: no cytotoxicity

Compound: COc1cc2c3c(cc4ccccc4c3c1O)NC2=O [AL-FI]
- IC50 [1, 8]: 417.2 ± 0.2 µM

Compound: COc1cccc2c1cc1c3c(cc4c(c32)OCO4)C(=O)N1 [AL-I, aristolactam Ι]
- IC50 [1, 8]: 135.7 ± 0.3 µM

Compound: COc1cccc2c1C(=O)c1c(O)c3c(c(O)c1C2=O)C[C@@](O)(C(=O)CO)C[C@@H]3O[C@H]1C[C@H](N)[C@H](O)[C@H](C)O1 [Extract of ADM, Adriamycin]
- IC50 [1, 8]: 3.1 ± 0.1 µM
- tail length compared with blank control group ([3]; HepG2, 48 h): significantly higher
- tail DNA content compared with blank control group [4]: significant differences
